Source: the NIST ThermoML archive (doi:10.1021/acs.jced.7b01006)

Experiments:
[1] = xn = mol fraction of the nth substance listed; conditions: 100 kPa, Liquid, x2 = 0; for viscosity: Falling or rolling sphere viscometry; for mass density: Vibrating tube method
[2] = for electrical conductivity / viscosity / mass density: 100 kPa, Liquid; for electrical conductivity: Alternating current cell with electrodes; for viscosity: Falling or rolling sphere viscometry; for mass density: Vibrating tube method; for surface tension liquid-gas: Wilhelmy plate

CC#N [acetonitrile] + CCC[n+]1ccn(C)c1C.N#C[S-]
[1]
Conditions | mass density [kg/m3] | viscosity [mPa·s]
288.15 K | 787.58 | 0.376
293.15 K | 781.89 | 0.357
298.15 K | 776.52 | 0.339
303.15 K | 771.12 | 0.324
308.15 K | 765.83 | 0.309
313.15 K | 760.36 | 0.295
318.15 K | 755.14 | 0.283
323.15 K | 749.44 | 0.272

CCC[n+]1ccn(C)c1C.N#C[S-] [1,2-dimethyl-3-propylimidazolium thiocyanate]
[2]
Conditions | electrical conductivity [S/m] | mass density [kg/m3] | surface tension liquid-gas [mN/m] | viscosity [mPa·s]
288.15 K | 0.255 | 1099.81 | – | 316.5
293.15 K | 0.361 | 1096.75 | – | 215.8
298.15 K | 0.459 | 1093.67 | 48.8 | 151.9
303.15 K | 0.583 | 1090.61 | – | 110.1
308.15 K | 0.733 | 1087.57 | – | 83.42
313.15 K | 0.905 | 1084.55 | – | 64.78
318.15 K | 1.1 | 1081.54 | – | 50.96
323.15 K | 1.33 | 1078.54 | – | 41.55

CCCCn1cc[n+](C)c1C.N#C[S-] [1-butyl-2,3-dimethylimidazolium thiocyanate]
[2]
Conditions | electrical conductivity [S/m] | mass density [kg/m3] | surface tension liquid-gas [mN/m] | viscosity [mPa·s]
288.15 K | 0.106 | 1084.2 | – | 452.7
293.15 K | 0.153 | 1081.11 | – | 311.3
298.15 K | 0.217 | 1078.2 | 44.8 | 218
303.15 K | 0.293 | 1075.18 | – | 157.9
308.15 K | 0.386 | 1072.16 | – | 118.9
313.15 K | 0.496 | 1069.15 | – | 90.46
318.15 K | 0.627 | 1066.16 | – | 72.04
323.15 K | 0.774 | 1063.2 | – | 57.11

CC#N [acetonitrile] + CCCCn1cc[n+](C)c1C.N#C[S-]
[1]
Conditions | mass density [kg/m3] | viscosity [mPa·s]
288.15 K | 787.58 | 0.376
293.15 K | 781.89 | 0.357
298.15 K | 776.52 | 0.339
303.15 K | 771.12 | 0.324
308.15 K | 765.83 | 0.309
313.15 K | 760.36 | 0.295
318.15 K | 755.14 | 0.283
323.15 K | 749.44 | 0.272

CC#N [acetonitrile]
[2]
Conditions | mass density [kg/m3] | viscosity [mPa·s]
288.15 K | 787.58 | 0.376
293.15 K | 781.89 | 0.357
298.15 K | 776.52 | 0.339
303.15 K | 771.12 | 0.324
308.15 K | 765.83 | 0.309
313.15 K | 760.36 | 0.295
318.15 K | 755.14 | 0.283
323.15 K | 749.44 | 0.272
